# Laboratory results: US20260116908A1, “TYLOSIN DERIVATIVE AND PREPARATION METHOD AND APPLICATION THEREOF” (Institute of Feed Research, Chinese Academy of Agricultural …, priority 2023, published 2026)
# Legend:
# Format in all cases: cell-based
# [1] = system: Streptococcus pneumoniae ATCC 49169; assay: MIC by broth microdilution, Streptococcus pneumoniae; conditions: for MIC: Streptococcus pneumoniae, ATCC49169, final compound (after hydrolysis), 96-well two-fold dilution, 37° C., 24 hours; for antibacterial effect on Streptococcus pneumoniae before versus after hydrolysis: before vs after hydrolysis
# Method: (§1) The antibacterial activity of the tylosin derivative Ia and the antibacterial activity of the tylosin derivative Ib of the present invention were determined by using the broth microdilution method with tylosin as a positive control. A broth culture medium was added into a 96-well plate, a prepared compound solution was diluted in a trace two-fold decreasing concentration, and then was inoculated with an appropriate amount of bacterial solution. After incubation for 24 hours, the minimum inhibitory concentration of the compound was observed. The culture medium used in the experiment was CAMHB broth and CAMHB+5% defibrillated sheep blood broth. The preserved bacteria strain was inoculated into a serum plate medium and cultured at 37° C. for 16-18 hours. An appropriate amount of bacteria after the completion of subculture and saline were placed into a turbidimetric tube and calibrated to the McFarland standard with a McFarland turbidimeter. The bacterial suspension was diluted 10 times with saline to prepare test bacterial solutions of certain concentrations (5×10^5 to 5×10^6 cfu/mL) for later use. Tylosin and the compounds obtained in the examples were dissolved in methanol to the desired concentration of each compound (1.0 mg/mL), stored in sterilized brown vials, stoppered, and sealed for later use. The working concentration range against Gram-negative bacteria was 0.25 μg/mL to 128 μg/mL; and the working concentration range against Gram-positive bacteria was […] to 50 μg/mL. The 96-well plate micro double dilution method was used. […] Finally, the prepared bacterial solution (of a concentration of 5×10^5 to 5×10^6 cfu/mL) was added into the first well to the eleventh well, and the twelfth well was not added with the bacterial solution to serve as a blank control. The 96-well plate was placed in a 37° C. incubator, cultured in a static state for 24 hours to observe the bacterial growth in each well. The solution in the well that inhibited bacterial growth was transparent, and the solution in the well that could not inhibit bacterial growth was turbid. The concentration corresponding to the well with a transparent solution was selected to be the minimum inhibitory concentration (MIC) of the sample.
# [2] = system: Escherichia coli ATCC 8099; assay: MIC by broth microdilution, Escherichia coli; conditions: for MIC: Escherichia coli, ATCC8099, final compound (after hydrolysis), 96-well two-fold dilution, 37° C., 24 hours; for antibacterial effect on Escherichia coli before versus after hydrolysis: before vs after hydrolysis
# Method: as §1
# [3] = system: Staphylococcus aureus ATCC 29737; assay: MIC by broth microdilution, Staphylococcus aureus
# Method: (§2) The antibacterial activity of the tylosin derivative Ia and the antibacterial activity of the tylosin derivative Ib of the present invention were determined by using the broth microdilution method with tylosin as a positive control. A broth culture medium was added into a 96-well plate, a prepared compound solution was diluted in a trace two-fold decreasing concentration, and then was inoculated with an appropriate amount of bacterial solution. After incubation for 24 hours, the minimum inhibitory concentration of the compound was observed. The culture medium used in the experiment was CAMHB broth and CAMHB+5% defibrillated sheep blood broth. The preserved bacteria strain was inoculated into a serum plate medium and cultured at 37° C. for 16-18 hours. An appropriate amount of bacteria after the completion of subculture and saline were placed into a turbidimetric tube and calibrated to the McFarland standard with a McFarland turbidimeter. The bacterial suspension was diluted 10 times with saline to prepare test bacterial solutions of certain concentrations (5×10^5 to 5×10^6 cfu/mL) for later use. Tylosin and the compounds obtained in the examples were dissolved in methanol to the desired concentration of each compound (1.0 mg/mL), stored in sterilized brown vials, stoppered, and sealed for later use. […]
# [4] = system: Streptococcus agalactiae CVCC3940; assay: MIC by broth microdilution, Streptococcus agalactiae
# Method: as §2
MIC [1] [µg/mL],MIC [2] [µg/mL],"MIC ([3]; Staphylococcus aureus, ATCC29737, after hydrolysis, 96-well two-fold dilution, 37° C., 24 hours) [µg/mL]","MIC ([4]; Streptococcus agalactiae, CVCC3940, after hydrolysis, 96-well two-fold dilution, 37° C., 24 hours) [µg/mL]",Compound,antibacterial effect on Streptococcus pneumoniae before versus after hydrolysis [1],in vitro antibacterial activity against Streptococcus pneumoniae compared with tylosin [1],antibacterial effect on Escherichia coli before versus after hydrolysis [2],antibacterial activity against Staphylococcus aureus before versus after hydrolysis ([3]; before vs after hydrolysis),antibacterial activity against Streptococcus agalactiae before versus after hydrolysis ([4]; before vs after hydrolysis),in vitro antibacterial activity against Escherichia coli compared with tylosin ([2]; compared with tylosin)
0.391,128,0.781,1.56,"CC[C@H]1OC(=O)C[C@@H](O)[C@H](C)[C@@H](O[C@@H]2O[C@H](C)[C@@H](O)[C@H](N(C)C)[C@H]2O)[C@@H](CCNCCCO)C[C@@H](C)C(=O)/C=C/C(C)=C/[C@@H]1CO[C@@H]1O[C@H](C)[C@@H](O)[C@@H](OC)[C@H]1OC [Ia, 20-(3-hydroxypropylamino)desmycosin]",comparable,higher in vitro antibacterial activity,comparable,stronger after the hydrolysis,stronger before the hydrolysis,
0.098,64,,,"CC[C@H]1OC(=O)C[C@@H](O)[C@H](C)[C@@H](O[C@@H]2O[C@H](C)[C@@H](O)[C@H](N(C)C)[C@H]2O)[C@@H](CCN2CCC[C@@H]2CO)C[C@@H](C)C(=O)/C=C/C(C)=C/[C@@H]1CO[C@@H]1O[C@H](C)[C@@H](O)[C@@H](OC)[C@H]1OC [Ib, 20-((R)-2-hydroxymethyltetrahydropyrrolyl)desmycosin]",doubled after the hydrolysis,higher in vitro antibacterial activity,comparable,,,higher in vitro antibacterial activity
0.781,128,,,CC[C@H]1OC(=O)C[C@@H](O)[C@H](C)[C@@H](O[C@@H]2O[C@H](C)[C@@H](O[C@H]3C[C@@](C)(O)[C@@H](O)[C@H](C)O3)[C@H](N(C)C)[C@H]2O)[C@@H](CC=O)C[C@@H](C)C(=O)/C=C/C(C)=C/[C@@H]1CO[C@@H]1O[C@H](C)[C@@H](O)[C@@H](OC)[C@H]1OC [Tylosin],,,,,,
